This note sets out measurements from publication PMC13047053, “Crystal structure of human INPP5K with an allosteric inhibitor reveals the structural basis for species specific potency” (Scientific Reports, 2026).

For orientation: IC50 means the concentration that inhibits the measured activity by half. The low end stands for greater potency, the high end for weaker potency.

This test concerns the target T1, human SHIP2 (Homo sapiens, UniProt O15357).
T1 construct: full-length human SHIP2 (aa 1–1 258) containing a C-terminal FLAG-tag; FLAG (C); made in house; host or cells: Expi293 cells (pcDNA3.4, transient)
T1 sequence (O15357 1-1258): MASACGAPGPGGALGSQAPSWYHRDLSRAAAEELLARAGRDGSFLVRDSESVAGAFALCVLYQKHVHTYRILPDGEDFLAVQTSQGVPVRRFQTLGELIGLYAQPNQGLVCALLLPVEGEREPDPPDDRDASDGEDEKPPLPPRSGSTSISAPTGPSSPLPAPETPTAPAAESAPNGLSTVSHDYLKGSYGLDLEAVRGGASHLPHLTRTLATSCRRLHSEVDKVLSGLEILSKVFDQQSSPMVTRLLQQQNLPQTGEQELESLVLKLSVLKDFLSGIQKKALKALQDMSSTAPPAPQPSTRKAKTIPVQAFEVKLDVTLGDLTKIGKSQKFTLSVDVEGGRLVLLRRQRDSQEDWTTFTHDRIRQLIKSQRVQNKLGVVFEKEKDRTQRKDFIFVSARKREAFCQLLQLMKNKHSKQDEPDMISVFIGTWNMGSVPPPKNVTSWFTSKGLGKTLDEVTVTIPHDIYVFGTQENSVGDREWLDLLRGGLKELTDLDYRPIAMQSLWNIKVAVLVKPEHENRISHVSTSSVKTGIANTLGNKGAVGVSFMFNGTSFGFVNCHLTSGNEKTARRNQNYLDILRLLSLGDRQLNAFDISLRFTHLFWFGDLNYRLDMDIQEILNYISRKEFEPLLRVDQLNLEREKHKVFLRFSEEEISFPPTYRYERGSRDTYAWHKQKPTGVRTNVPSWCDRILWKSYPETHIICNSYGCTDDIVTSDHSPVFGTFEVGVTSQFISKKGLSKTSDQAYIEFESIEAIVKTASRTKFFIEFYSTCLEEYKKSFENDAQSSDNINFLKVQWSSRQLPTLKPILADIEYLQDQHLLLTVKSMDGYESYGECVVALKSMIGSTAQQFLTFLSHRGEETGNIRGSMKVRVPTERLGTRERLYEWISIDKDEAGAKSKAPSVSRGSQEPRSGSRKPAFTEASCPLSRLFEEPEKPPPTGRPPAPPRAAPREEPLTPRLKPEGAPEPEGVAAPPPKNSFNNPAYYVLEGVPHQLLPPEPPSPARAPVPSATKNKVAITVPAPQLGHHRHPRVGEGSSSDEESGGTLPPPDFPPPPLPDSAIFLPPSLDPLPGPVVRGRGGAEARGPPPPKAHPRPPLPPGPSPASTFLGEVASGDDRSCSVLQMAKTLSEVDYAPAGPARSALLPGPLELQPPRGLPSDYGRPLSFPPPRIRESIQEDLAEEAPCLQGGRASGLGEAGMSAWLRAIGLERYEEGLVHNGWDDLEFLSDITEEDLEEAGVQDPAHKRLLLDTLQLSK
In words: Inorganic phosphate detection assay for phosphatase inhibition. The test is classed as biochemical. As to conditions: 20 µM diC8-PI(3,4,5)P3, 20 min.

Compound `CC(C)c1sc(NC(=O)c2ccccc2)c(C(=O)O)c1-c1ccccc1` [CPD-1] showed an IC50 greater than 100 µM.
